Test systems include COLO 205 colon; HCT-15 colon; IGROV1 ovarian; LOX IMVI melanoma; MALME-3M melanoma; NCI/ADR-RES ovarian; OVCAR-8 ovarian; RPMI-8226 leukemia; RXF 393 renal; SF-295 CNS.
Assay in all cases: inhibition of tumour cell growth, NCI panel, 48 h

Values joined by “and” are separate entries in the source; they are usually repeats but may differ in a detail not shown here. Equal entries are not always repeated.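 Step 1: Grow cells in 96-well plates. Step 2: Expose to compound for 48 hours at 5 concentrations. Step 3: Interpolate endpoints linearly; if unreached, use highest concentration. GI50 marks 50% less growth. The concentration for full growth arrest is given as TGI.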 Bounds are passed on as bounds.

For `O=C(O)CCC1CCC(c2cc(F)ccc2F)(S(=O)(=O)c2ccc(Cl)cc2)CC1` (stereo not given), the GI50 with COLO 205 colon is 42.3 µM and > 100 µM; with HCT-15 colon it was 33.7 µM and 47.8 µM; with IGROV1 ovarian, 18 µM and 80.7 µM; with LOX IMVI melanoma, 40.3 µM and > 66.5 µM; in the assay with MALME-3M melanoma, 10.2 µM and > 100 µM; in the assay with NCI/ADR-RES ovarian it was 25.8 µM and > 74.3 µM. Moreover, the GI50 in the assay with OVCAR-8 ovarian was 74.8 µM and > 100 µM; with RPMI-8226 leukemia, 71.4 µM and > 100 µM; with RXF 393 renal it was 12.5 µM and 76.6 µM; in the assay on SF-295 CNS, greater than 56.9 µM. The TGI was greater than 100 µM in the assay with COLO 205 colon; greater than 100 µM in the assay with HCT-15 colon; 65 µM and > 100 µM in the assay on IGROV1 ovarian; greater than 100 µM in the assay on LOX IMVI melanoma; 96.4 µM and > 100 µM in the assay on MALME-3M melanoma; 99.7 µM and > 100 µM in the assay on NCI/ADR-RES ovarian. For the same compound, the TGI in the assay with OVCAR-8 ovarian was greater than 100 µM; with RPMI-8226 leukemia, greater than 100 µM; in the assay on RXF 393 renal it was 78.8 µM and > 100 µM; in the assay with SF-295 CNS it was greater than 100 µM.

For the compound `Cn1cc(C2=C(c3c4n(c5ccccc35)CCC(CN)CC4)C(=O)NC2=O)c2ccccc21` (stereo not given), the GI50 with COLO 205 colon is 3.49 µM; in the assay on HCT-15 colon, 4.82 µM; in the assay on IGROV1 ovarian, 3.98 µM; in the assay with LOX IMVI melanoma, 5.26 µM; in the assay on MALME-3M melanoma, 3.8 µM; in the assay on NCI/ADR-RES ovarian, greater than 25 µM. Besides, the GI50 in the assay with OVCAR-8 ovarian is 4.82 µM; in the assay with RPMI-8226 leukemia it was 4.41 µM; in the assay with RXF 393 renal, 3.65 µM; in the assay with SF-295 CNS it was 4.01 µM. Also, the TGI in the assay on COLO 205 colon is 7.45 µM; in the assay with HCT-15 colon, 9.93 µM; in the assay with IGROV1 ovarian, 8.75 µM; in the assay with LOX IMVI melanoma, 11.4 µM; with MALME-3M melanoma, 7.88 µM; in the assay with NCI/ADR-RES ovarian, greater than 25 µM. For the same compound, the TGI came out at 9.8 µM in the assay on OVCAR-8 ovarian, 10.8 µM in the assay on RPMI-8226 leukemia, 7.1 µM in the assay with RXF 393 renal and 8.02 µM in the assay with SF-295 CNS.

As for `O=C(Nc1ccc(Br)c(Cl)c1)c1cc(F)ccc1O`, the GI50 in the assay on COLO 205 colon was 2.75 µM; in the assay on HCT-15 colon it was 0.888 µM; in the assay with IGROV1 ovarian, 0.682 µM; in the assay on LOX IMVI melanoma it was 0.553 µM; in the assay with MALME-3M melanoma, 0.263 µM; in the assay with NCI/ADR-RES ovarian, 1.04 µM. Moreover, the GI50 in the assay on OVCAR-8 ovarian is 1.21 µM; in the assay on RPMI-8226 leukemia, 0.231 µM; in the assay on RXF 393 renal, 1.06 µM; in the assay on SF-295 CNS, 0.933 µM. In addition, the TGI is 13.9 µM in the assay with COLO 205 colon; 6.66 µM with HCT-15 colon; greater than 50 µM with IGROV1 ovarian; 3.04 µM with LOX IMVI melanoma; 1.99 µM with MALME-3M melanoma; greater than 15.6 µM in the assay with NCI/ADR-RES ovarian. The TGI in the assay with OVCAR-8 ovarian was greater than 30.5 µM; in the assay with RPMI-8226 leukemia, 1.02 µM; with RXF 393 renal, 3.97 µM; in the assay with SF-295 CNS, 1.89 µM.

Regarding `O=C1C=CC2(C=C1)CCN=c1c(O)c3c(c(O)c12)=NC=N3`, the GI50 was 21.2 µM and > 100 µM in the assay on COLO 205 colon; 14.5 µM and > 100 µM in the assay on HCT-15 colon; 22.7 µM and > 100 µM in the assay with NCI/ADR-RES ovarian; 14 µM and > 100 µM in the assay with OVCAR-8 ovarian; 12.2 µM and > 100 µM in the assay on RPMI-8226 leukemia; 16.2 µM and > 100 µM with RXF 393 renal. For the same compound, the GI50 in the assay with SF-295 CNS was 20 µM and > 100 µM. Moreover, the TGI with COLO 205 colon is 36.7 µM and > 100 µM; in the assay with HCT-15 colon it was 29.9 µM and > 100 µM; in the assay with IGROV1 ovarian it was 31 µM; in the assay with LOX IMVI melanoma, 15.1 µM and > 100 µM; in the assay with MALME-3M melanoma, 4.42 µM; in the assay on NCI/ADR-RES ovarian it was greater than 100 µM. Moreover, the TGI in the assay with OVCAR-8 ovarian is 37.3 µM and > 100 µM; in the assay with RPMI-8226 leukemia, 42.3 µM and > 100 µM; in the assay with RXF 393 renal it was 30.1 µM and > 100 µM; with SF-295 CNS it was 34.4 µM and > 100 µM.

In the case of `COC(=O)C#Cc1ccc([N+](=O)[O-])cc1`, the TGI in the assay with COLO 205 colon amounted to 3.41 µM; in the assay on HCT-15 colon, 1.6 µM; with IGROV1 ovarian, 3.92 µM; with LOX IMVI melanoma it was 2.64 µM; in the assay on MALME-3M melanoma, 4.41 µM; with NCI/ADR-RES ovarian, 21.8 µM. Moreover, the TGI in the assay on OVCAR-8 ovarian worked out at 7.25 µM; with RPMI-8226 leukemia it was 1.48 µM; in the assay on RXF 393 renal, 4.11 µM; in the assay with SF-295 CNS, 10.9 µM.

For `CN(C)CC1CCn2c(c(C3=C(c4cn(C)c5ccccc45)C(=O)NC3=O)c3ccccc32)C1` (stereo not given), the GI50 was 3.42 µM with COLO 205 colon; 4.1 µM in the assay on HCT-15 colon; 5.22 µM with IGROV1 ovarian; 3.86 µM with LOX IMVI melanoma; 3.59 µM with MALME-3M melanoma; 5.17 µM in the assay with NCI/ADR-RES ovarian. For the same compound, the GI50 in the assay with OVCAR-8 ovarian is 4.62 µM; in the assay on RPMI-8226 leukemia, 4.89 µM; with RXF 393 renal it was 3.3 µM; in the assay with SF-295 CNS, 4.46 µM. For the same compound, the TGI in the assay on COLO 205 colon worked out at 7.51 µM; in the assay on HCT-15 colon, 10.1 µM; in the assay with IGROV1 ovarian, 10.1 µM; with LOX IMVI melanoma, 7.83 µM; with MALME-3M melanoma it was 7.31 µM; in the assay on NCI/ADR-RES ovarian, 16.6 µM. The TGI was 9.87 µM with OVCAR-8 ovarian, 11 µM with RPMI-8226 leukemia, 6.71 µM with RXF 393 renal and 9.06 µM with SF-295 CNS.

For `COc1cccc2c1c1nc3cc(C)c(C)cc3nc1n2CCN(C)C`, the GI50 in the assay on COLO 205 colon was 0.767 µM; in the assay on HCT-15 colon, 1.64 µM; in the assay with IGROV1 ovarian, 1.76 µM; with LOX IMVI melanoma, 1.04 µM; with MALME-3M melanoma it was 1.14 µM; in the assay on NCI/ADR-RES ovarian, 1.22 µM. Moreover, the GI50 is 0.798 µM in the assay with OVCAR-8 ovarian, 1.16 µM with RPMI-8226 leukemia, 1.59 µM with RXF 393 renal and 2.17 µM with SF-295 CNS. In addition, the TGI is 3.31 µM in the assay with COLO 205 colon; 11.2 µM in the assay with HCT-15 colon; 10.7 µM in the assay on IGROV1 ovarian; 8.7 µM in the assay on LOX IMVI melanoma; 2.62 µM with MALME-3M melanoma; 13.3 µM in the assay on NCI/ADR-RES ovarian. Moreover, the TGI in the assay with OVCAR-8 ovarian is 13.3 µM; with RPMI-8226 leukemia it was 4.29 µM; with RXF 393 renal it was 3.54 µM; in the assay with SF-295 CNS it was 7.62 µM.

On to `Cc1ccc(C(=O)NC2CCCCC2)cc1-c1ccc(C(=O)NCC2CC2)cc1`, for which the GI50 in the assay on COLO 205 colon was greater than 25 µM; in the assay with HCT-15 colon it was greater than 25 µM; in the assay with IGROV1 ovarian it was greater than 25 µM; with LOX IMVI melanoma, greater than 25 µM; in the assay on MALME-3M melanoma, greater than 25 µM; in the assay with NCI/ADR-RES ovarian, 24.6 µM. Besides, the GI50 in the assay on OVCAR-8 ovarian is greater than 25 µM; in the assay on RPMI-8226 leukemia, greater than 25 µM; with RXF 393 renal, greater than 25 µM; in the assay with SF-295 CNS, 10.8 µM. Further, the TGI in the assay on COLO 205 colon, with HCT-15 colon, in the assay with IGROV1 ovarian, in the assay with LOX IMVI melanoma, with MALME-3M melanoma and in the assay on NCI/ADR-RES ovarian was greater than 25 µM in each case. For the same compound, the TGI in the assay with OVCAR-8 ovarian, in the assay with RPMI-8226 leukemia, in the assay with RXF 393 renal and in the assay with SF-295 CNS was greater than 25 µM each time.

Regarding `CO[C@H](C(=O)N[C@@H](CCCCNC(=O)OCc1ccccc1)C(=O)OC(C)(C)C)[C@@H]1Cc2cc3cc(OC4CC(OC5CC(O)C(O)C(C)O5)C(O)C(C)O4)c(C)c(O)c3c(O)c2C(=O)[C@H]1OC1CC(OC2CC(OC3CC(C)(O)C(O)C(C)O3)C(O)C(C)O2)C(O)C(C)O1` (stereo not given in full), the GI50 was 0.689 µM in the assay with COLO 205 colon; 2.55 µM with HCT-15 colon; 0.449 µM with IGROV1 ovarian; 0.434 µM in the assay with LOX IMVI melanoma; 0.516 µM with MALME-3M melanoma; 0.697 µM in the assay with OVCAR-8 ovarian. The GI50 in the assay on RPMI-8226 leukemia is 0.487 µM; in the assay on RXF 393 renal it was 0.705 µM; in the assay with SF-295 CNS it was 0.468 µM. Moreover, the TGI in the assay with COLO 205 colon is 3.63 µM; with HCT-15 colon it was greater than 10 µM; with IGROV1 ovarian, greater than 10 µM; with LOX IMVI melanoma, 2.4 µM; in the assay on MALME-3M melanoma it was 1.86 µM; in the assay with NCI/ADR-RES ovarian it was greater than 10 µM. Also, the TGI in the assay on OVCAR-8 ovarian is greater than 10 µM; in the assay on RPMI-8226 leukemia, 3.65 µM; with RXF 393 renal, 2.02 µM; in the assay with SF-295 CNS it was 1.72 µM.

`Cc1ccc(NC(=O)c2ccnc(N3CCCC3)c2)cc1-c1ccc(C(=O)NCC2CC2)cc1`: the GI50 with COLO 205 colon, in the assay with HCT-15 colon, with IGROV1 ovarian, with LOX IMVI melanoma, with MALME-3M melanoma and with NCI/ADR-RES ovarian was greater than 25 µM in each case. Further, the GI50 with OVCAR-8 ovarian, in the assay on RPMI-8226 leukemia and in the assay on SF-295 CNS was greater than 25 µM throughout. In addition, the TGI in the assay on COLO 205 colon, in the assay on HCT-15 colon, with IGROV1 ovarian, with LOX IMVI melanoma, in the assay with MALME-3M melanoma and with NCI/ADR-RES ovarian was greater than 25 µM throughout. For the same compound, the TGI with OVCAR-8 ovarian, with RPMI-8226 leukemia, in the assay on RXF 393 renal and in the assay on SF-295 CNS was greater than 25 µM in each case.

Source of the values: PubChem BioAssay (NCI).
